Reference: US6525001B1, “Substituted pyrimidine and pyridine herbicides” (Mid-American Commercialization Corporation, priority 1997, dated 2003)

How the values were obtained:
Assay type in all cases: in vivo
[1] = system: broadleaf signalgrass (Brachiaria decumbens); assay: Test B pre-/postemergence; parameters: key: 0 is no effect; 10 is complete control
In short: (§1)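 Scored visually 0 (none) to 10 (complete control) against untreated plants after twelve to sixteen greenhouse days. Test chemicals, formulated in surfactant-containing non-phytotoxic solvent, applied to soil after planting and, separately, onto 1- to 4-leaf (2–18 cm) plants.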

[2] = system: rape (Brassica napus); assay: Test B pre-/postemergence; parameters: key: 0 is no effect; 10 is complete control
In short: as §1

[3] = system: velvetleaf (Abutilon theophrasti); assay: Test B pre-/postemergence; parameters: key: 0 is no effect; 10 is complete control
In short: as §1

[4] = system: corn (Zea mays); assay: Test B pre-/postemergence; parameters: key: 0 is no effect; 10 is complete control
In short: as §1

[5] = system: giant foxtail (Setaria faberii); assay: Test B pre-/postemergence; parameters: key: 0 is no effect; 10 is complete control
In short: as §1

[6] = system: cocklebur (Xanthium strumarium); assay: Test B pre-/postemergence; parameters: key: 0 is no effect; 10 is complete control
In short: as §1

[7] = system: pigweed (Amaranthus retroflexus); assay: Test B pre-/postemergence; parameters: key: 0 is no effect; 10 is complete control
In short: as §1

[8] = system: momingglory (Ipomoea hederacea); assay: Test B pre-/postemergence; parameters: key: 0 is no effect; 10 is complete control
In short: as §1

[9] = system: bedstraw (Galium aparine); assay: Test B pre-/postemergence; parameters: key: 0 is no effect; 10 is complete control
In short: as §1

[10] = system: sugar beet (Beta vulgaris); assay: Test B pre-/postemergence; parameters: key: 0 is no effect; 10 is complete control
In short: as §1

[11] = system: wheat (Triticum aestivum); assay: Test B pre-/postemergence; parameters: key: 0 is no effect; 10 is complete control
In short: as §1

[12] = system: duck salad (Heteranthera limosa); assay: Test B flood test; conditions: for Plant response rating, Ducksalad: Postemergence (flood test species)
In short: (§2)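 Flood test on plants grown to the 2-leaf stage; treated plants kept in greenhouse twelve to sixteen days, then visually rated against controls on a 0 (no effect) to 10 (complete control) scale.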

[13] = system: bamyardgrass (Echinochloa crus-galli); assay: Test B flood test; conditions: for Plant response rating, Barnyardgrass: Postemergence (flood test species)
In short: as §2

[14] = system: smallflower flatsedge (Cyperus difformis); assay: Test B flood test; conditions: for Plant response rating, S. Flatsedge: Postemergence (flood test species)
In short: as §2

[15] = system: rice (Oryza sativa); assay: Test B flood test; conditions: for Plant response rating, Rice: Postemergence (flood test species)
In short: as §2

[16] = Preemergence, Rate 62 g/ha, scale of 0 to 10
[17] = Rate 62 g/ha, Postemergence (flood test)
[18] = Rate 125 g/ha, Postemergence section (flood test species)

With `Cc1cnc(-n2cnc(C(F)(F)F)n2)nc1C(=O)c1cccc(C(F)(F)F)c1` [Compound 67] the “B. signalgrass plant response rating” value ([1]; Rate 62 g/ha, Postemergence) was 5, the “B. signalgrass plant response rating” value ([1]; Rate 62 g/ha, Preemergence) was 8 and the “B. signalgrass plant response rating” value ([1]; Rate 125 g/ha, Postemergence) was 7. The “Plant response rating, B. signalgrass” value ([1]; Rate 125 g/ha, Preemergence) was 9, the “Plant response rating, B. signalgrass” value ([1]; Rate 250 g/ha, Postemergence) was 7 and the “Plant response rating, B. signalgrass” value ([1]; Rate 250 g/ha, Preemergence) was 10. The “Plant response rating, B. signalgrass” value ([1]; Rate 500 g/ha, Postemergence) was 9, the “Plant response rating, B. signalgrass” value ([1]; Rate 500 g/ha, Preemergence) was 10 and the “Plant response rating, Rape” value [2, 16] was 7. For the same compound, the “Rape plant response rating” value ([2]; Rate 62 g/ha, Postemergence) was 6, the “Rape plant response rating” value ([2]; Rate 125 g/ha, Postemergence) was 8 and the “Plant response rating, Rape” value ([2]; Rate 125 g/ha, Preemergence) was 9. The “Plant response rating, Rape” value ([2]; Rate 250 g/ha, Postemergence) was 8, the “Plant response rating, Rape” value ([2]; Rate 250 g/ha, Preemergence) was 10 and the “Plant response rating, Rape” value ([2]; Rate 500 g/ha, Postemergence) was 9. For the same compound, the “Plant response rating, Rape” value ([2]; Rate 500 g/ha, Preemergence) was 10, the “Plant response rating, Velvetleaf” value [3, 16] was 8 and the “Velvetleaf plant response rating” value ([3]; Rate 62 g/ha, Postemergence) was 8. For the same compound, the “Velvetleaf plant response rating” value ([3]; Rate 125 g/ha, Postemergence) was 8, the “Plant response rating, Velvetleaf” value ([3]; Rate 125 g/ha, Preemergence) was 9 and the “Plant response rating, Velvetleaf” value ([3]; Rate 250 g/ha, Postemergence) was 8. For the same compound, the “Plant response rating, Velvetleaf” value ([3]; Rate 250 g/ha, Preemergence) was 10, the “Plant response rating, Velvetleaf” value ([3]; Rate 500 g/ha, Postemergence) was 8 and the “Plant response rating, Velvetleaf” value ([3]; Rate 500 g/ha, Preemergence) was 10. The “Plant response rating, Corn” value [4, 16] was 4, the “Corn plant response rating” value ([4]; Rate 62 g/ha, Postemergence) was 4 and the “Corn plant response rating” value ([4]; Rate 125 g/ha, Postemergence) was 5. The “Plant response rating, Corn” value ([4]; Rate 125 g/ha, Preemergence) was 4, the “Plant response rating, Corn” value ([4]; Rate 250 g/ha, Postemergence) was 6 and the “Plant response rating, Corn” value ([4]; Rate 250 g/ha, Preemergence) was 4. The “Plant response rating, Corn” value ([4]; Rate 500 g/ha, Postemergence) was 7, the “Plant response rating, Corn” value ([4]; Rate 500 g/ha, Preemergence) was 7 and the “Plant response rating, Giant foxtail” value [5, 16] was 7. The “Giant foxtail plant response rating” value ([5]; Rate 62 g/ha, Postemergence) was 5, the “Giant foxtail plant response rating” value ([5]; Rate 125 g/ha, Postemergence) was 6 and the “Plant response rating, Giant foxtail” value ([5]; Rate 125 g/ha, Preemergence) was 9. For the same compound, the “Plant response rating, Giant foxtail” value ([5]; Rate 250 g/ha, Postemergence) was 9, the “Plant response rating, Giant foxtail” value ([5]; Rate 250 g/ha, Preemergence) was 10 and the “Plant response rating, Giant foxtail” value ([5]; Rate 500 g/ha, Postemergence) was 9. For the same compound, the “Plant response rating, Giant foxtail” value ([5]; Rate 500 g/ha, Preemergence) was 10, the “Cocklebur plant response rating” value ([6]; Rate 62 g/ha, Postemergence) was 7 and the “Cocklebur plant response rating” value ([6]; Rate 125 g/ha, Postemergence) was 7. For the same compound, the “Plant response rating, Cocklebur” value ([6]; Rate 250 g/ha, Postemergence) was 8, the “Plant response rating, Cocklebur” value ([6]; Rate 250 g/ha, Preemergence) was 2 and the “Plant response rating, Cocklebur” value ([6]; Rate 500 g/ha, Postemergence) was 9. For the same compound, the “Plant response rating, Cocklebur” value ([6]; Rate 500 g/ha, Preemergence) was 5, the “Plant response rating, Redroot pigweed” value [7, 16] was 9 and the “Redroot pigweed plant response rating” value ([7]; Rate 62 g/ha, Postemergence) was 9. The “Redroot pigweed plant response rating” value ([7]; Rate 125 g/ha, Postemergence) was 10, the “Plant response rating, Redroot pigweed” value ([7]; Rate 125 g/ha, Preemergence) was 10 and the “Plant response rating, Redroot pigweed” value ([7]; Rate 250 g/ha, Postemergence) was 10. For the same compound, the “Plant response rating, Redroot pigweed” value ([7]; Rate 250 g/ha, Preemergence) was 10, the “Plant response rating, Redroot pigweed” value ([7]; Rate 500 g/ha, Postemergence) was 10 and the “Plant response rating, Redroot pigweed” value ([7]; Rate 500 g/ha, Preemergence) was 10. The “Plant response rating, Morningglory” value [8, 16] was 8, the “Morningglory plant response rating” value ([8]; Rate 62 g/ha, Postemergence) was 7 and the “Morningglory plant response rating” value ([8]; Rate 125 g/ha, Postemergence) was 7. For the same compound, the “Plant response rating, Morningglory” value ([8]; Rate 125 g/ha, Preemergence) was 10, the “Plant response rating, Morningglory” value ([8]; Rate 250 g/ha, Postemergence) was 10 and the “Plant response rating, Morningglory” value ([8]; Rate 250 g/ha, Preemergence) was 10. The “Plant response rating, Morningglory” value ([8]; Rate 500 g/ha, Postemergence) was 10, the “Plant response rating, Morningglory” value ([8]; Rate 500 g/ha, Preemergence) was 10 and the “Plant response rating, Bedstraw” value [9, 16] was 7. The “Bedstraw plant response rating” value ([9]; Rate 62 g/ha, Postemergence) was 9, the “Bedstraw plant response rating” value ([9]; Rate 125 g/ha, Postemergence) was 9 and the “Plant response rating, Bedstraw” value ([9]; Rate 125 g/ha, Preemergence) was 9. For the same compound, the “Plant response rating, Bedstraw” value ([9]; Rate 250 g/ha, Postemergence) was 10, the “Plant response rating, Bedstraw” value ([9]; Rate 250 g/ha, Preemergence) was 9 and the “Plant response rating, Bedstraw” value ([9]; Rate 500 g/ha, Postemergence) was 10. For the same compound, the “Plant response rating, Bedstraw” value ([9]; Rate 500 g/ha, Preemergence) was 10, the “Plant response rating, Sugarbeets” value [10, 16] was 9 and the “Sugarbeets plant response rating” value ([10]; Rate 62 g/ha, Postemergence) was 9. The “Sugarbeets plant response rating” value ([10]; Rate 125 g/ha, Postemergence) was 9, the “Plant response rating, Sugarbeets” value ([10]; Rate 125 g/ha, Preemergence) was 10 and the “Plant response rating, Sugarbeets” value ([10]; Rate 250 g/ha, Postemergence) was 9. For the same compound, the “Plant response rating, Sugarbeets” value ([10]; Rate 250 g/ha, Preemergence) was 10, the “Plant response rating, Sugarbeets” value ([10]; Rate 500 g/ha, Postemergence) was 9 and the “Plant response rating, Sugarbeets” value ([10]; Rate 500 g/ha, Preemergence) was 10. For the same compound, the “Plant response rating, Wheat” value [11, 16] was 3, the “Wheat plant response rating” value ([11]; Rate 62 g/ha, Postemergence) was 3 and the “Wheat plant response rating” value ([11]; Rate 125 g/ha, Postemergence) was 4. For the same compound, the “Plant response rating, Wheat” value ([11]; Rate 125 g/ha, Preemergence) was 3, the “Plant response rating, Wheat” value ([11]; Rate 250 g/ha, Postemergence) was 5 and the “Plant response rating, Wheat” value ([11]; Rate 250 g/ha, Preemergence) was 3. For the same compound, the “Plant response rating, Wheat” value ([11]; Rate 500 g/ha, Postemergence) was 6, the “Plant response rating, Wheat” value ([11]; Rate 500 g/ha, Preemergence) was 4 and the “Ducksalad plant response rating” value [12, 17] was 3. For the same compound, the “Ducksalad plant response rating” value [12, 18] was 4, the “Plant response rating, Ducksalad” value ([12]; Rate 250 g/ha) was 6 and the “Plant response rating, Ducksalad” value ([12]; Rate 500 g/ha) was 8. For the same compound, the “Barnyardgrass plant response rating” value [13, 17] was 3, the “Barnyardgrass plant response rating” value [13, 18] was 3 and the “Plant response rating, Barnyardgrass” value ([13]; Rate 250 g/ha) was 5. For the same compound, the “Plant response rating, Barnyardgrass” value ([13]; Rate 500 g/ha) was 6, the “S. Flatsedge plant response rating” value [14, 17] was 5 and the “S. Flatsedge plant response rating” value [14, 18] was 8. For the same compound, the “Plant response rating, S. Flatsedge” value ([14]; Rate 250 g/ha) was 9, the “Plant response rating, S. Flatsedge” value ([14]; Rate 500 g/ha) was 9 and the “Rice plant response rating” value [15, 17] was 1. The “Rice plant response rating” value [15, 18] was 2, the “Plant response rating, Rice” value ([15]; Rate 250 g/ha) was 2 and the “Plant response rating, Rice” value ([15]; Rate 500 g/ha) was 4.
